Results from a melting point compilation (Tetko et al.; mined from patent text by program, amines drawn as free bases though some values may be those of a salt).

| SMILES | melting point [°C] |
| --- | --- |
| Cc1cnc2c(c1)C(=O)CC(C)(C)C2 | 232 to 235 |
| O=C(Cc1ccc(Br)cc1)c1ccc(Cl)cc1Cl | 69 to 70 |
| Nc1ccc(C(=O)NO)c(O)c1 | 180 to 181 |
| COCCOC(=O)C1=C(C)NC(C)C(C(=O)OC(C)C)(c2ccc(F)cc2F)C1 (configuration not stated) | 123 to 126 |
| Cc1sc2c(c1C)C(c1ccc(Cl)cc1)=NC(CC(=O)O)c1nnc(C)n1-2 (configuration not stated) | 166 to 177 |
| O=C1CCN(CC(c2ccccc2)c2ccccc2)CC1C1(O)CCN(CC(c2ccccc2)c2ccccc2)CC1 (configuration not stated) | 125 to 127 |
| CC(O)CC#Cc1ccc(C(CC2CCCC2)C(=O)O)cc1 (configuration not stated) | 73 to 76 |
| CCCCCCNc1nc(Cl)nc2c(SC)ncnc12 | 80 to 82 |
| Cc1ccc(S(=O)(=O)ON=C(c2cccc([N+](=O)[O-])c2)n2nc(C)cc2N)cc1 | 156 to 158 |
| CCn1cc(C(=O)Nc2ccccc2)c(=O)n2c3ccccc3nc12 | 268 to 270 |
| COc1ccc(S(=O)(=O)Nc2ccccc2NC(=O)c2ccco2)cc1 | 158 to 159 |
| Cc1cccc(Nc2cc(Nc3ccc(OCC#N)cc3)ncn2)c1 | 207 to 210 |
| CC1CN(c2c(F)cc3c(=O)c(C(=O)O)cn(C4CC4)c3c2Cl)CC1NC(=O)OC(C)(C)C (configuration not stated) | 210 to 213 |
| COc1cc2c(cc1OC)C(=O)C(CN1CCC3(CC1)C(=O)NCN3c1ccccc1)C2 (configuration not stated) | 174 to 177 |
| CCCCCCCCCc1ccc(C(=O)O)c(O)c1 | 94 to 97 |
| Nc1nc2ccccc2c2c1nc(CCO)n2CC1(O)CCC1 | 132 to 137 |
| CON=C(Nc1nc(C)cc(C)n1)NS(=O)(=O)c1ccccc1S(=O)(=O)OC | 130 to 138 |
| BrCC(Br)c1ccc(-c2ccccc2)cc1 (configuration not stated) | 79 to 81 |
| CCC(Oc1ccc(-n2c(C)nc3cc(C(F)(F)F)ccc32)cc1)C(=O)O (configuration not stated) | 98 |
| COc1ccc(-c2cc(CCC(=O)O)sc2-c2ccc(OC)cc2)cc1 | 96 |
| COc1cc(C=CC(=O)OCCCCBr)ccc1O | 86 to 89 |
| CC(C)c1ccc(-c2csc(-c3cccc(C(=O)O)c3)c2)cc1 | 220 to 222 |
| CSc1nc(-c2ccc(S(C)(=O)=O)cc2)n(-c2ccc(C)c(C)c2)c(=O)c1C#N | 245 to 247 |
| Cc1oc2c(C=O)cccc2c1C | 56 to 58 |
| CS(=O)(=O)c1csc(NC(=O)c2ccccc2O)n1 | 231 to 235 |

| SMILES | melting point [°C] |
| --- | --- |
| CN(CCNC(=O)c1nc(Cl)c(N)nc1N)CCC(=O)NCCN | 140 to 142 |
| COc1ccc(C2(O)CCN(C(=O)OCc3ccccc3)CC2)cc1 | 98 |
| Cc1cccc(C)c1NC(=O)c1ccc([N+](=O)[O-])cc1 | 212 to 215 |
| Cc1c(Cc2cccc(C(F)(F)F)c2)sc2c(-c3cc(F)cc(C(N)=O)c3)cccc12 | 146 to 147 |
| O=S1(=O)CC2C(C1)N(CCO)CCN2CCO (configuration not stated) | 145 to 147 |
| CC(C)(O)C#Cc1cccc(Nc2nccc(-c3sc(N)nc3-c3ccccc3)n2)c1 | 262 to 263 |
| CCOC(=O)NC(=O)P(=O)(OCC)OCC | 57 to 64 |
| O=C1CC2CCc3ccc(Cl)cc3C2=NN1c1ccccc1 (configuration not stated) | 120 to 122 |
| CN(C)Cc1ccnc(CSCCNc2ncc(Cc3ccn(C)c(=O)c3)c(=O)[nH]2)c1 | 137 to 139 |
| CC(=O)CC(=O)OCCCOC(=O)c1ccc(OCCn2ccnc2)cc1 | 49.5 to 51.5 |
| CC(=O)Nc1ccc2nc3[nH]c(=O)[nH]c3cc2c1 | > 320 |
| COc1ccc2cc([C@H](C)C(=O)OCCC(C)(C)C)ccc2c1 | 92 to 94 |
| O=C1NC(=O)c2nc3ccccc3cc21 | > 300 |
| CN(C)c1ccc(C2(c3ccc(N(C)C)cc3N(C)C)OC(=O)c3ccccc32)cc1 (configuration not stated) | 190 to 194 |
| CC(NC(=O)OC(C)(C)C)c1ccc(NS(C)(=O)=O)c(C#Cc2ccccc2)c1 (configuration not stated) | 157 to 158 |
| CCOC(=O)c1sc(C(=O)OCC)c2c1OCC(CC)(CC)CO2 | 100 |
| CN(CCO)c1ccnc(CSc2nc3ccccc3[nH]2)c1Cl | 132 to 135 |
| NS(=O)(=O)c1ccc(-c2oc3cc(F)ccc3c(=O)c2-c2ccccc2F)cc1 | 188 |
| CC(CCC(O)CO)=Nc1ncnc2c1ncn2C1OC(CO)C(O)C1O (configuration not stated) | 102 to 104 |
| CCCc1c(CSc2nnc(SCCCS(=O)CC(=O)O)s2)ccc(C(C)=O)c1O (configuration not stated) | 107 to 110 |
| Nc1nc(-c2ccccc2)cc(C2CCN(C(=O)c3ccccc3)CC2)n1 | 104 to 105 |
| CCCCCCCCCCCCCCCCOC[C@@H]1OCC[C@H]1OP(=O)([O-])OCC[N+](C)(C)C (relative stereo) | 213 to 223 |
| COc1ccc(-c2c(Cl)c(CNC(C)(C)C)nc3sc4c(c23)CCN(C(=O)c2ccccc2)C4)cc1OC | 204 to 205 |
| CC(OCCO)n1cc(F)c(=O)[nH]c1=O (configuration not stated) | 118 to 120 |
| CC1(C)Cc2c(N)c(Cl)cc(C(=O)NCCC34CCCN3CCC4)c2O1 | 189 to 191 |

| SMILES | melting point [°C] |
| --- | --- |
| Cc1nc2c3c(ccn2c1C)C(=O)CC(c1ccccc1)N3 (configuration not stated) | 138 to 140 |
| CC(C)S(=O)(=O)c1cc(OCc2ccccc2)c2[nH]nc(N)c2c1 | 179 to 180 |
| COC1(c2cccc(OCc3ccc(-n4cnc(-c5ccccc5)c4)cc3)c2)CCOCC1 | 98 to 100 |
| Cc1ccc(N(C(=O)CCl)c2c(F)cccc2Cl)cc1 | 80 to 83 |
| CCN([C@H]1CC[C@H](c2ccc3[nH]c(=O)oc3c2)CC1)[C@H](C)CCc1ccccc1 | 139 to 158 |
| O=C1CCc2ccc(OCCCCN3CCCN(c4cccc(Cl)c4Cl)CC3)nc2N1 | 110 to 111 |
| CCOC(=O)CCC(=O)c1ccc(-c2ccccc2)cc1 | 100 to 101 |
| CSCc1cc(N)ccc1O | 166 |
| COc1cc(CCCC2SC(=O)NC2=O)cc(OC)c1OCc1ccccc1 (configuration not stated) | 101 to 102 |
| c1ccc(-c2cc(N3CCCCC3)c(-c3ccccc3)o2)cc1 | 103 |
| CC(C)(C)c1cc2c(c(C(C)(C)C)c1)OCC(/C=C/C=C/C=C/C(=O)O)=C2 | 166 to 168 |
| O=C1Nc2ccc(F)cc2C(C#CC2CC2)(C(F)(F)F)N1 (racemic) | 155 |
| COCc1c(-c2ccccc2)ncc2[nH]c3ccc(OCc4ccccc4)cc3c12 | 189 to 191 |
| CCOC(=O)C1=C(CSC(=N)N)NC(C)=C(C(=O)OC)C1c1cccc([N+](=O)[O-])c1 (single isomer, unassigned; (+)) | 122 to 124 |
| Cc1cc(-c2ccc(Cl)cc2)nc(-n2cnc(-c3cccc(S(C)(=O)=O)c3)c2)n1 | 233 |
| O=c1c2cc(Cl)cc(Br)c2ncn1CCCN1CC=C(c2c[nH]c3ccccc23)CC1 | 192 |
| CCOc1cc(-n2c(=O)cc(C(F)(F)F)n(C)c2=O)c(F)cc1Br | 128 |
| CC[C@H]1[C@@H](O)CC(=O)N1c1ccc(C#N)c(Cl)c1F | 142 to 144 |
| COP(=O)(Cc1cc(Cl)c(O)c(C(C)(C)C)c1)OC | 107 |
| COc1ccc(CN2C(=O)NC(=O)C2O)cc1OC (configuration not stated) | 143 to 144 |
| O=C1NC(=O)C(c2cn3c4c(cccc24)CCC3)C1c1ccc(OCc2ccccc2)cc1 (configuration not stated) | 91 to 93 |
| COc1cc2c(cc1Br)c1ccccc1n2CCC(C)CCCC(C)C (configuration not stated) | 55 |
| O=C(Nc1ccn2cc(CO)nc2c1)c1cc2cc(C(F)(F)F)ccc2n1Cc1cccc(F)c1 | 254 to 255 |
| O=C(O)C1CC(c2ccco2)=NN1C(=O)CCS (configuration not stated) | 121 to 123 |
| CN1CCN(C2=Nc3cc(Br)ccc3-n3ccc4cccc2c43)CC1 | 164 to 166 |

| SMILES | melting point [°C] |
| --- | --- |
| CC12CC(N3CCOCC3)C(O)CC1CCC1C2CCC2(C)C(C(=O)CCl)CCC12 (configuration not stated) | 181 |
| CNC(=O)c1ccc(C(C)(C)CCNC(=O)NCc2ccc(N)nc2)nc1Nc1ccccc1 | 134 |
| Cc1nc2cc(NC(=O)c3cc4cc(C(F)(F)F)cnc4n3Cc3cccc(F)c3)ccc2n1C | 263 to 265 |
| COc1ccc(CSc2nc3cnccc3[nH]2)cc1C | 158 to 159 |
| N#CC(C(=O)Cl)=C(c1ccccc1)c1ccccc1 | 157 to 158 |
| CSc1ccc(CC(=O)NC(NC(=NC#N)Nc2ccccc2C)C(C)(C)C)cc1 (configuration not stated) | 151 to 152 |
| FC(F)c1cc(-c2ccc(C(F)(F)F)cc2)nc2cncn12 | 173 |
| CCCCCCCCCC(=O)SCC(C)(C(=O)Nc1cccc(C(=O)O)c1C)c1ccccc1 (configuration not stated) | 105 to 111 |
| CCCCc1nc(Cl)c(COC)n1Cc1ccc(-c2ccccc2NS(=O)(=O)C(F)(F)F)cc1 | 148 to 150 |
| Cc1nc2sc(C)c(C)n2c(=O)c1CCN1CCC(C(=O)c2ccc(F)cc2)CC1 | 159 |
| NC(=O)C1=NN(c2cccc(COc3ccccc3)c2)C(c2ccccc2)N1 (configuration not stated) | 177 to 178 |
| O=c1cc(OCc2ccccc2Cl)ccn1Cc1ccccc1 | 125 |
| O=C(O)c1cccc2c1CCCc1ccccc1-2 | 137 to 139 |
| Cc1cc(C)cc(Oc2cc(Br)cc(S(=O)(=O)N3CCN(C(=O)OC(C)(C)C)CC3)c2)c1 | 155 |
| CNC(=S)NS(=O)(=O)c1cc(CCNC(=O)/C=C/c2cccs2)ccc1OCCOC | 140 |
| ON=C(Cc1ccccc1)c1cccnc1 | 122 to 126 |
| CCN(c1nc2ccccc2c(=O)o1)c1ccccc1I | 129 to 130 |
| CC(=NOCCOc1ccc(CC2SC(=O)N(C(c3ccccc3)(c3ccccc3)c3ccccc3)C2=O)cc1)c1ccc(-c2ccccc2)cc1 (configuration not stated) | 145 |
| COc1ccc(N2CCOCC2)cc1NC(=S)c1nc2ccccc2[nH]1 | 236 to 237 |
| Cc1cc(Br)sc1-c1nc(-c2c(F)cccc2Cl)nn1C | 117 to 118 |
| CC(C#N)(COc1cc(F)c(F)cc1-c1ccsc1)NC(=O)c1ccc(OC(F)(F)F)cc1 (configuration not stated) | 128 to 130 |
| CCCc1nc2c(N)nc3cccnc3c2n1CCOCCON=C(C)C | 127 to 128 |
